Results: ChEMBL document CHEMBL4229379, “Synthesis and structure-activity relationship of novel bisindole amidines active against MDR Gram-positive and Gram-negative bacteria” (Eur J Med Chem, 2018)

Legend:
[1] = system: Staphylococcus epidermidis; test: Antibacterial activity against methicillin-sensitive Staphylococcus epidermidis ATCC 12228 after 18 hrs by CLSI broth microdilution method; type: functional; details: ATCC 12228, 18 h
[2] = system: Staphylococcus epidermidis; test: Antibacterial activity against methicillin-resistant Staphylococcus epidermidis 12-8 after 18 hrs by CLSI broth microdilution method; type: functional; details: 12-8, 18 h
Staphylococcus aureus [3] = test: Antibacterial activity against methicillin-sensitive Staphylococcus aureus ATCC 29213 after 18 hrs by CLSI broth microdilution method; type: functional; details: ATCC 29213, 18 h
Staphylococcus aureus [4] = test: Antibacterial activity against methicillin-resistant Staphylococcus aureus 12-33 after 18 hrs by CLSI broth microdilution method; type: functional; details: 12-33, 18 h
Enterococcus faecalis [5] = test: Antibacterial activity against vancomycin-sensitive Enterococcus faecalis ATCC 29212 after 18 hrs by CLSI broth microdilution method; type: functional; details: ATCC 29212, 18 h
Enterococcus faecalis [6] = test: Antibacterial activity against vancomycin-resistant Enterococcus faecalis 09-9 after 18 hrs by CLSI broth microdilution method; type: functional; details: 09-9, 18 h
Enterococcus faecium [7] = test: Antibacterial activity against vancomycin-resistant Enterococcus faecium ATCC 700221 after 18 hrs by CLSI broth microdilution method; type: functional; details: ATCC 700221, 18 h
Enterococcus faecium [8] = test: Antibacterial activity against vancomycin-sensitive Enterococcus faecium 12-3 after 18 hrs by CLSI broth microdilution method; type: functional; details: 12-3, 18 h
Escherichia coli [9] = test: Antibacterial activity against extended-spectrum beta-lactamase deficient Escherichia coli ATCC 25922 after 18 hrs by CLSI broth microdilution method; type: functional; details: ATCC 25922, 18 h
Escherichia coli [10] = test: Antibacterial activity against extended-spectrum beta-lactamase harboring Escherichia coli 12-15 after 18 hrs by CLSI broth microdilution method; type: functional; details: 12-15, 18 h
Klebsiella pneumoniae [11] = test: Antibacterial activity against extended-spectrum beta-lactamase harboring Klebsiella pneumoniae ATCC 700603 after 18 hrs by CLSI broth microdilution method; type: functional; details: Klebsiella pneumoniae, 700603, 18 h
Klebsiella pneumoniae [12] = test: Antibacterial activity against new delhi metallo-beta-lactamase-1 harboring Klebsiella pneumoniae ATCC BAA-2146 after 18 hrs by CLSI broth microdilution method; type: functional; details: ATCC BAA-2146, 18 h
Klebsiella pneumoniae [13] = test: Antibacterial activity against extended-spectrum beta-lactamase harboring Klebsiella pneumoniae 12-8 after 18 hrs by CLSI broth microdilution method; type: functional; details: 12-8, 18 h
Pseudomonas aeruginosa [14] = test: Antibacterial activity against Pseudomonas aeruginosa ATCC 27853 after 18 hrs by CLSI broth microdilution method; type: functional; details: ATCC 27853, 18 h
[15] = system: Acinetobacter calcoaceticus; test: Antibacterial activity against Acinetobacter calcoaceticus ATCC 19606 after 18 hrs by CLSI broth microdilution method; type: functional; details: ATCC 19606, 18 h
Enterobacter cloacae = test: Antibacterial activity against Enterobacter cloacae ATCC 43560 after 18 hrs by CLSI broth microdilution method; type: functional; details: ATCC 43560, 18 h
Proteus mirabilis = test: Antibacterial activity against Proteus mirabilis 12-6 after 18 hrs by CLSI broth microdilution method; type: functional; details: 12-6, 18 h
[16] = Cytotoxicity against HEK293T cells assessed as reduction in cell viability after 48 hrs by MTS assay; type: cell-based, HEK-293T; details: human
[17] = system: Staphylococcus epidermidis; test: Antibacterial activity against methicillin-sensitive Staphylococcus epidermidis 12-6 after 18 hrs by CLSI broth microdilution method; type: functional; details: 12-6, 18 h
Staphylococcus aureus [18] = test: Antibacterial activity against methicillin-resistant Staphylococcus aureus ATCC 33591 after 18 hrs by CLSI broth microdilution method; type: functional; details: ATCC 33591, 18 h
Staphylococcus aureus [19] = test: Antibacterial activity against methicillin-sensitive Staphylococcus aureus 15 after 18 hrs by CLSI broth microdilution method; type: functional; details: Staphylococcus aureus, 15, 18 h
Staphylococcus aureus [20] = test: Antibacterial activity against methicillin-sensitive Staphylococcus aureus 12-28 after 18 hrs by CLSI broth microdilution method; type: functional; details: 12-28, 18 h
Enterococcus faecalis [21] = test: Antibacterial activity against vancomycin-resistant Enterococcus faecalis ATCC 51299 after 18 hrs by CLSI broth microdilution method; type: functional; details: ATCC 51299, 18 h
Enterococcus faecalis [22] = test: Antibacterial activity against vancomycin-sensitive Enterococcus faecalis 12-5 after 18 hrs by CLSI broth microdilution method; type: functional; details: 12-5, 18 h
Enterococcus faecium [23] = test: Antibacterial activity against vancomycin-resistant Enterococcus faecium 12-1 after 18 hrs by CLSI broth microdilution method; type: functional; details: 12-1, 18 h
Escherichia coli [24] = test: Antibacterial activity against extended-spectrum beta-lactamase deficient Escherichia coli 1515 after 18 hrs by CLSI broth microdilution method; type: functional; details: Escherichia coli, 1515, 18 h
Escherichia coli [25] = test: Antibacterial activity against extended-spectrum beta-lactamase deficient Escherichia coli 12-14 after 18 hrs by CLSI broth microdilution method; type: functional; details: 12-14, 18 h
Klebsiella pneumoniae [26] = test: Antibacterial activity against extended-spectrum beta-lactamase deficient Klebsiella pneumoniae 7 after 18 hrs by CLSI broth microdilution method; type: functional; details: Klebsiella pneumoniae, 7, 18 h
Klebsiella pneumoniae [27] = test: Antibacterial activity against extended-spectrum beta-lactamase deficient Klebsiella pneumoniae 12-4 after 18 hrs by CLSI broth microdilution method; type: functional; details: 12-4, 18 h
Pseudomonas aeruginosa [28] = test: Antibacterial activity against Pseudomonas aeruginosa PAO1 after 18 hrs by CLSI broth microdilution method; type: functional; details: PAO1, 18 h
Pseudomonas aeruginosa [29] = test: Antibacterial activity against Pseudomonas aeruginosa 12-16 after 18 hrs by CLSI broth microdilution method; type: functional; details: 12-16, 18 h
Klebsiella aerogenes = test: Antibacterial activity against Enterobacter aerogenes ATCC 13048 after 18 hrs by CLSI broth microdilution method; type: functional; details: ATCC 13048, 18 h
Serratia marcescens = test: Antibacterial activity against Serratia marcescens ATCC 21074 after 18 hrs by CLSI broth microdilution method; type: functional; details: ATCC 21074, 18 h
Providencia rettgeri = test: Antibacterial activity against Providencia rettgeri ATCC 31052 after 18 hrs by CLSI broth microdilution method; type: functional; details: ATCC 31052, 18 h
Proteus vulgaris = test: Antibacterial activity against Proteus vulgaris ATCC 29905 after 18 hrs by CLSI broth microdilution method; type: functional; details: ATCC 29905, 18 h
[30] = system: Stenotrophomonas maltophilia; test: Antibacterial activity against Stenotrophomonas maltophilia ATCC 13636 after 18 hrs by CLSI broth microdilution method; type: functional; details: ATCC 13636, 18 h
Citrobacter freundii = test: Antibacterial activity against Citrobacter freundii ATCC 43864 after 18 hrs by CLSI broth microdilution method; type: functional; details: ATCC 43864, 18 h

CN(C)CCNC(=N)c1ccc2cc(-c3ccc(-c4cc5ccc(C(=N)NCCN(C)C)cc5[nH]4)cc3)[nH]c2c1
2 µg/mL: MIC (Staphylococcus aureus [3]) | MIC (Staphylococcus aureus [4]) | MIC (Staphylococcus aureus [18]) | MIC (Staphylococcus aureus [19]) | MIC (Staphylococcus aureus [20])
128 µg/mL: MIC (Proteus mirabilis)
1 µg/mL: MIC [2]
31.2 µg/mL: CC50 at 48 h [16]
> 128 µg/mL: MIC [15]
4 µg/mL: MIC (Enterococcus faecalis [5]) | MIC (Enterococcus faecalis [6]) | MIC (Enterococcus faecium [7]) | MIC (Enterococcus faecalis [21]) | MIC (Enterococcus faecalis [22]) | MIC (Enterococcus faecium [23])
64 µg/mL: MIC (Pseudomonas aeruginosa [28]) | MIC (Pseudomonas aeruginosa [29])
16 µg/mL: MIC (Escherichia coli [10]) | MIC (Klebsiella pneumoniae [11]) | MIC (Pseudomonas aeruginosa [14]) | MIC (Serratia marcescens) | MIC (Providencia rettgeri) | MIC (Proteus vulgaris) | MIC [30]
0.5 µg/mL: MIC [1] | MIC [17]
8 µg/mL: MIC (Enterococcus faecium [8]) | MIC (Escherichia coli [9]) | MIC (Klebsiella pneumoniae [12]) | MIC (Klebsiella pneumoniae [13]) | MIC (Enterobacter cloacae) | MIC (Escherichia coli [24]) | MIC (Escherichia coli [25]) | MIC (Klebsiella pneumoniae [26]) | MIC (Klebsiella pneumoniae [27]) | MIC (Klebsiella aerogenes) | MIC (Citrobacter freundii)

CN1CCC2(CC1)CCN(C(=N)c1ccc3cc(-c4ccc(-c5cc6ccc(C(=N)N7CCC8(CCN(C)CC8)C7)cc6[nH]5)cc4)[nH]c3c1)C2
2 µg/mL: MIC [1]
4 µg/mL: MIC [2]
128 µg/mL: MIC (Enterococcus faecalis [22]) | MIC (Pseudomonas aeruginosa [29]) | MIC (Proteus vulgaris)
> 128 µg/mL: MIC [15] | MIC (Enterobacter cloacae) | MIC (Proteus mirabilis) | MIC (Serratia marcescens) | MIC (Providencia rettgeri) | MIC [30]
28.4 µg/mL: CC50 at 48 h [16]
64 µg/mL: MIC (Klebsiella pneumoniae [11]) | MIC (Pseudomonas aeruginosa [28])
32 µg/mL: MIC (Pseudomonas aeruginosa [14])
8 µg/mL: MIC (Staphylococcus aureus [3]) | MIC (Staphylococcus aureus [4]) | MIC (Escherichia coli [9]) | MIC [17] | MIC (Staphylococcus aureus [18]) | MIC (Staphylococcus aureus [19]) | MIC (Escherichia coli [24]) | MIC (Klebsiella pneumoniae [26])
16 µg/mL: MIC (Enterococcus faecalis [5]) | MIC (Enterococcus faecalis [6]) | MIC (Enterococcus faecium [7]) | MIC (Enterococcus faecium [8]) | MIC (Escherichia coli [10]) | MIC (Klebsiella pneumoniae [12]) | MIC (Klebsiella pneumoniae [13]) | MIC (Staphylococcus aureus [20]) | MIC (Enterococcus faecalis [21]) | MIC (Enterococcus faecium [23]) | MIC (Escherichia coli [25]) | MIC (Klebsiella pneumoniae [27]) | MIC (Klebsiella aerogenes) | MIC (Citrobacter freundii)

COCCNC(=N)c1ccc2cc(-c3ccc(-c4cc5ccc(C(=N)NCCOC)cc5[nH]4)cc3)[nH]c2c1
16 µg/mL: MIC (Klebsiella pneumoniae [11]) | MIC (Pseudomonas aeruginosa [14]) | MIC (Serratia marcescens) | MIC (Proteus vulgaris) | MIC [30]
0.125 µg/mL: MIC [1] | MIC [2] | MIC [17]
0.5 µg/mL: MIC (Enterococcus faecalis [5]) | MIC (Enterococcus faecium [7]) | MIC (Enterococcus faecium [8]) | MIC (Enterococcus faecalis [21]) | MIC (Enterococcus faecium [23])
8 µg/mL: MIC (Klebsiella pneumoniae [12]) | MIC (Klebsiella pneumoniae [13]) | MIC (Escherichia coli [24]) | MIC (Klebsiella pneumoniae [26]) | MIC (Klebsiella pneumoniae [27]) | MIC (Klebsiella aerogenes) | MIC (Providencia rettgeri)
32 µg/mL: MIC [15] | MIC (Proteus mirabilis) | MIC (Pseudomonas aeruginosa [28]) | MIC (Pseudomonas aeruginosa [29])
4 µg/mL: MIC (Escherichia coli [10])
3.95 µg/mL: CC50 at 48 h [16]
1 µg/mL: MIC (Enterococcus faecalis [6])
2 µg/mL: MIC (Escherichia coli [9]) | MIC (Enterobacter cloacae) | MIC (Enterococcus faecalis [22]) | MIC (Escherichia coli [25]) | MIC (Citrobacter freundii)
0.25 µg/mL: MIC (Staphylococcus aureus [3]) | MIC (Staphylococcus aureus [4]) | MIC (Staphylococcus aureus [18]) | MIC (Staphylococcus aureus [19]) | MIC (Staphylococcus aureus [20])
